{"source": "patent US9504676B2", "about": "“Molecules inhibiting a metabolic pathway involving the Syk protein tyrosine kinase and method for identifying said molecules” (CENTRE NATIONAL DE LA RECHERCHE SCIENTIFIQUE, priority 2008, dated 2016)", "key": {"SLP-76": {"test_system": "SLP-76", "assay": "Phosphorylation of SLP-76 (phospho-specific antibodies)", "type": "cell-based, rat", "conditions": "RBL-2H3 cells"}, "Btk": {"test_system": "Btk", "assay": "Phosphorylation and FcεRI-induced kinase activity of Btk in RBL-2H3 cells", "type": "cell-based, rat", "source_text": "(§1) To examine the functional similarities with G4G11, the inventors explored the biological effects of C-13 on mast cell activation. […] Similarly to the intrabody G4G11, C-13 inhibited the phosphorylation and FcεRI-induced kinase activity of Btk (FIG. 2A) and the phosphorylation of PLC-γ1 and PLC-γ2, the two PLC-γ isoforms expressed in mast cells (FIGS. 2A, C). PTK Lyn phosphorylates both Syk and Btk giving rise to the complete activation thereof and the subsequent phosphorylation of PLC-γ^18.\n(§2) • 1) Chemical products and antibodies. A chemical bank of 3000 molecules (a varied subset) was acquired from ChemBridge, Inc. (San Diego, Calif.). Stocks of solutions of small molecules were prepared at a rate of 10 mM in DMSO (dimethylsulphoxide), except for C-13 (methyl 2-{5-[(3-benzyl-4-oxo-2-thioxo-1,3-thiazolidin-5-ylidene)methyl]-2-furyl}benzoate, ChemBridge ID No. 6197026) prepared in DMF (dimethylformamide). […] The binding of G4G11 with Syk was assessed by adding the 9E10 monoclonal antibody conjugated with HRP detecting the amino acid sequence EQKLISEEDLN of human c-myc protein located at the C-terminal end of the scFv fragment. To generate Syk mutants, targeted mutagenesis was used on GST:Syk 6-242 protein and the binding of G4G11 with the mutants was assessed in the presence of 5 μM of C-13. • 3) Cells, culture conditions and functional tests. […]"}, "BALB/c mice": {"test_system": "BALB/c mice", "assay": "Peritonitis: Syk-dependent peritoneal neutrophil recruitment", "type": "in vivo", "conditions": "single oral administration of 100 mg/kg, Bordetella pertussis toxin"}, "Lyn": {"test_system": "Lyn", "assay": "FcεRI-dependent Lyn activation in RBL-2H3 cells", "type": "cell-based, rat", "source_text": "as §1, §2"}}, "data": [{"compound": "COC(=O)c1ccccc1-c1ccc(/C=C2/SC(=S)N(Cc3ccccc3)C2=O)o1", "note": "[Molecule C-13, methyl 2-{5-[(3-benzyl-4-oxo-2-thioxo-1,3-thiazolidin-5-ylidene)methyl]-2-furyl}benzoate]", "values": [{"measurement": "phosphorylation of SLP-76", "setting": "SLP-76", "value": "inhibits"}, {"measurement": "phosphorylation and FcεRI-induced kinase activity of Btk", "setting": "Btk", "value": "inhibited"}, {"measurement": "Syk-dependent neutrophil recruitment induced by thioglycollate in the peritoneal cavity", "setting": "BALB/c mice", "value": "did not affect"}, {"measurement": "FcεRI-dependent Lyn activation", "setting": "Lyn", "value": "did not affect"}]}]}
